Assays:
ROMK = ROMK (Homo sapiens (Human), UniProt P48048); assay: Thallium Flux Assay; type: cell-based
Description: A Thallium Flux Assay was performed on the compounds of the Examples. This assay has been described previously; see, e.g., PCT Published Application WO 2013/062900.

Kir1.1 (ROMK1) = Kir1.1 (ROMK1) (Homo sapiens (Human), UniProt P48048); assay: Electrophysiology Assay (whole cell voltage clamp, IonWorks Quattro); type: cell-based; conditions: Chinese hamster ovary cells stably expressing Kir1.1; fractional block at voltage step to 0 mV; 6 min compound incubation
Description: Blocking of Kir1.1 (ROMK1) currents was examined by whole cell voltage clamp (Hamill et. al. Pfluegers Archives 391:85-100 (1981)) using the IonWorks Quattro automated electrophysiology platform (Molecular Devices, Sunnyvale, Calif.). Chinese hamster ovary cells stably expressing Kir1.1 channels were maintained in T-75 flasks in cell culture media in a humidified 10% CO2 incubator at 37° C. Prior to an experiment, Kir1.1 expression was induced by overnight incubation with 1 mM sodium butyrate. On the day of the experiment, cells were dissociated with 2.5 mL of Versene (Invitrogen 15040-066), a non-enzymatic cell dissociation reagent, for approximately 6 min at 37° C. and suspended in 10 mL of bath solution containing (in mM): 150 NaCl, 10 KCl, 2.7 CaCl2, 0.5 MgCl2, and 5 HEPES, at pH 7.4. After centrifugation, the cell pellet was resuspended in approximately 4.0 mL of bath solution and placed in the IonWorks instrument. The intracellular solution consisted of (in mM): 80 K gluconate, 40 KCl, 20 KF, 3.2 MgCl2, 3 EGTA, and 5 Hepes, at pH 7.4. Electrical access to the cytoplasm was achieved by perforation in 0.13 mg/mL amphotericin B for 4 min. Amphotericin B (Sigma A-4888) was prepared as a 40 mg/mL solution in DMSO.
Voltage protocols and current recordings were performed using the IonWorks HT software/hardware system. Currents were sampled at 1 kHz. There was no correction for liquid junction potentials. The test pulse, consisting of a 100 ms (millisecond) step to 0 mV (millivolts) from a holding potential of −70 mV, followed by a 100 ms voltage ramp from −70 mV to +70 mV, was applied before and after a 6 min compound incubation period. Test compounds were prepared by diluting DMSO stock solutions into the bath solution at 3× the final concentration and placed in the instrument in 96-well polypropylene plates. Current amplitudes were measured using the IonWorks software. To assess compound potency, the fractional block during the voltage step to 0 mV was calculated in Microsoft Excel (Microsoft, Redmond, Calif.), and dose-response curves were fitted with Igor Pro 4.0 (WaveMetrics, Lake Oswego, Oreg.).

Sequence of ROMK (P48048 whole entry): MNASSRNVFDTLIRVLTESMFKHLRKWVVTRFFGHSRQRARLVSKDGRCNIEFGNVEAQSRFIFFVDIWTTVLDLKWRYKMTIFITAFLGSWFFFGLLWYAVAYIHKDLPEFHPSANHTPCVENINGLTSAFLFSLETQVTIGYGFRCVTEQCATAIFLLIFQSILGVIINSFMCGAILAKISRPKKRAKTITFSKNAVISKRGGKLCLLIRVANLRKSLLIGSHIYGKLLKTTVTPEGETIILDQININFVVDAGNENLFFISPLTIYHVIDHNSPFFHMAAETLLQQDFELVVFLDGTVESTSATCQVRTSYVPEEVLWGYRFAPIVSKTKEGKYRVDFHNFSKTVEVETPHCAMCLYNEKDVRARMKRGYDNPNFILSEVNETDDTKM
Sequence of Kir1.1 (ROMK1) (P48048 whole entry): as above

Compound: O=C1C=C(N2CCOC3(CCN(C[C@@H](O)c4ccc(-n5cnnn5)nc4)CC3)C2)CO1 [Example 19B, (S)-4-(9-(2-(6-(1H-tetrazol-1-yl)pyridin-3-yl)-2-hydroxyethyl)-1-oxa-4,9-diazaspiro[5.5]undecan-4-yl)furan-2(5H)-one]
- IC50 (ROMK): 263 nM
- IC50 (Kir1.1 (ROMK1)): 100 nM

Compound: CC1=C(N2CCOC3(CCN(C[C@@H](O)c4ccc(-n5cnnn5)nc4)CC3)C2=O)COC1=O [Example 6B, (S)-9-(2-(6-(1H-tetrazol-1-yl)pyridin-3-yl)-2-hydroxyethyl)-4-(4-methyl-5-oxo-2,5-dihydrofuran-3-yl)-1-oxa-4,9-diazaspiro[5.5]undecan-5-one]
- IC50 (ROMK): 12.1 nM
- IC50 (Kir1.1 (ROMK1)): 3.8 nM

Compound: CC1=C(N2CCOC3(CCN(C[C@H](O)c4ccc5c(c4C)COC5=O)CC3)C2)COC1=O [Example 21, (R)-5-(1-hydroxy-2-(4-(4-methyl-5-oxo-2,5-dihydrofuran-3-yl)-1-oxa-4,9-diazaspiro[5.5]undecan-9-yl)ethyl)-4-methylisobenzofuran-1(3H)-one]
- IC50 (ROMK): 171 nM
- IC50 (Kir1.1 (ROMK1)): 77 nM

Compound: CC1=C(N2CCN(C)C3(CCN(C[C@H](O)c4ccc5c(c4C)COC5=O)CC3)C2=O)COC1=O [Example 34, (R)-9-(2-hydroxy-2-(4-methyl-1-oxo-1,3-dihydroisobenzofuran-5-yl)ethyl)-1-methyl-4-(4-methyl-5-oxo-2,5-dihydrofuran-3-yl)-1,4,9-triazaspiro[5.5]undecan-5-one]
- IC50 (ROMK): 42.3 nM
- IC50 (Kir1.1 (ROMK1)): 27 nM

Compound: CC1=C(N2CCOC3(CCN(CC(O)c4cnc(-n5cnnn5)nc4)CC3)C2=O)COC1=O (single isomer, unassigned) [Example 46A, 9-(2-(2-(1H-tetrazol-1-yl)pyrimidin-5-yl)-2-hydroxyethyl)-4-(4-methyl-5-oxo-2,5-dihydrofuran-3-yl)-1-oxa-4,9-diazaspiro[5.5]undecan-5-one]
- IC50 (ROMK): 56 nM
- IC50 (Kir1.1 (ROMK1)): 51 nM

Compound: O=C1C=C(N2CCOC3(CCN(C[C@H](O)c4ccc(-n5cnnn5)nc4)CC3)C2)CO1 [Example 19A, (R)-4-(9-(2-(6-(1H-tetrazol-1-yl)pyridin-3-yl)-2-hydroxyethyl)-1-oxa-4,9-diazaspiro[5.5]undecan-4-yl)furan-2(5H)-one]
- IC50 (ROMK): 80.6 nM
- IC50 (Kir1.1 (ROMK1)): 56 nM

Compound: CC1=C(N2CCOC3(CCN(CCc4ccc(-n5cnnn5)nn4)CC3)C2=O)COC1=O [Example 51, 9-(2-(6-(1H-tetrazol-1-yl)pyridazin-3-yl)ethyl)-4-(4-methyl-5-oxo-2,5-dihydrofuran-3-yl)-1-oxa-4,9-diazaspiro[5.5]undecan-5-one]
- IC50 (ROMK): 26.8 nM
- IC50 (Kir1.1 (ROMK1)): 7.3 nM

Compound: CC1=C(N2CCOC3(CCN(CC(O)c4ccc(-n5cnnn5)nc4C)CC3)C2)COC1=O (single isomer, unassigned) [Example 22A, 4-(9-(2-hydroxy-2-(2-methyl-6-(1H-tetrazol-1-yl)pyridin-3-yl)ethyl)-1-oxa-4,9-diazaspiro[5.5]undecan-4-yl)-3-methylfuran-2(5H)-one]
- IC50 (ROMK): 34 nM
- IC50 (Kir1.1 (ROMK1)): 11 nM

Compound: Cc1nc(-n2cnnn2)ccc1C(O)CN1CCC2(CC1)CN(C1=CC(=O)OC1)CCO2 (single isomer, unassigned) [Example 20A, 4-(9-(2-hydroxy-2-(2-methyl-6-(1H-tetrazol-1-yl)pyridin-3-yl)ethyl)-1-oxa-4,9-diazaspiro[5.5]undecan-4-yl)furan-2(5H)-one]
- IC50 (ROMK): 61.5 nM
- IC50 (Kir1.1 (ROMK1)): 37 nM

Compound: Cc1c([C@@H](O)CN2C3CCC2CC2(C3)OCCN(C3=CC(=O)OC3)C2=O)ccc2c1COC2=O (stereo partly drawn) [Example 36, (1R,2′R,5S)-8-((R)-2-hydroxy-2-(4-methyl-1-oxo-1,3-dihydroisobenzofuran-5-yl)ethyl)-4′-(5-oxo-2,5-dihydrofuran-3-yl)-8-azaspiro[bicyclo[3.2.1]octane-3,2′-morpholin]-3′-one]
- IC50 (ROMK): 29.3 nM
- IC50 (Kir1.1 (ROMK1)): 13.4 nM

Compound: CC1=C(N2CCOC3(CCN(CC(O)c4ccc(-n5cnnn5)nc4C)CC3)C2=O)COC1=O (stereo not shown) [Example 39, 9-(2-hydroxy-2-(2-methyl-6-(1H-tetrazol-1-yl)pyridin-3-yl)ethyl)-4-(4-methyl-5-oxo-2,5-dihydrofuran-3-yl)-1-oxa-4,9-diazaspiro[5.5]undecan-5-one]
- IC50 (ROMK): 11.2 nM
- IC50 (Kir1.1 (ROMK1)): 13 nM

Compound: CC1=C(N2CCOC3(CCN(CC(O)c4ccc(-n5cnnn5)nc4C)CC3)C2)COC1=O (single isomer, unassigned) [Example 22B, 4-(9-(2-hydroxy-2-(2-methyl-6-(1H-tetrazol-1-yl)pyridin-3-yl)ethyl)-1-oxa-4,9-diazaspiro[5.5]undecan-4-yl)-3-methylfuran-2(5H)-one]
- IC50 (ROMK): 117 nM
- IC50 (Kir1.1 (ROMK1)): 29 nM

Compound: Cc1nc(-n2cnnn2)ccc1C(O)CN1CCC2(CC1)CN(C1=CC(=O)OC1)CCO2 (single isomer, unassigned) [Example 20B, 4-(9-(2-hydroxy-2-(2-methyl-6-(1H-tetrazol-1-yl)pyridin-3-yl)ethyl)-1-oxa-4,9-diazaspiro[5.5]undecan-4-yl)furan-2(5H)-one]
- IC50 (ROMK): 225 nM
- IC50 (Kir1.1 (ROMK1)): 71 nM

Compound: CC1=C(N2CCOC3(CCN(CC(O)c4cnc(-n5cnnn5)cn4)CC3)C2=O)COC1=O (single isomer, unassigned) [Example 18A, 9-(2-(5-(1H-tetrazol-1-yl)pyrazin-2-yl)-2-hydroxyethyl)-4-(4-methyl-5-oxo-2,5-dihydrofuran-3-yl)-1-oxa-4,9-diazaspiro[5.5]undecan-5-one]
- IC50 (ROMK): 69.6 nM
- IC50 (Kir1.1 (ROMK1)): 12 nM

Compound: CC1=C(N2CCOC3(CCN(CCc4ccc(-n5cnnn5)cn4)CC3)C2)COC1=O [Example 50]
- IC50 (ROMK): 57.6 nM
- IC50 (Kir1.1 (ROMK1)): 16 nM

Compound: CC1=C(N2CCNC3(CCN(C[C@H](O)c4ccc(-n5cnnn5)nc4)CC3)C2=O)COC1=O [Example 4A, (R)-9-(2-(6-(1H-tetrazol-1-yl)pyridin-3-yl)-2-hydroxyethyl)-4-(4-methyl-5-oxo-2,5-dihydrofuran-3-yl)-1,4,9-triazaspiro[5.5]undecan-5-one]
- IC50 (ROMK): 38.2 nM
- IC50 (Kir1.1 (ROMK1)): 46 nM

Compound: CC1=C(N2CCOC3(CCN(C[C@H](O)c4ccc(-n5cnnn5)nc4)CC3)C2=O)COC1=O [Example 6A, (R)-9-(2-(6-(1H-tetrazol-1-yl)pyridin-3-yl)-2-hydroxyethyl)-4-(4-methyl-5-oxo-2,5-dihydrofuran-3-yl)-1-oxa-4,9-diazaspiro[5.5]undecan-5-one]
- IC50 (ROMK): 14.6 nM
- IC50 (Kir1.1 (ROMK1)): 6.6 nM

Compound: CC1=C(N2CCNC3(CCN(CC(O)c4ccc(-n5cnnn5)nc4C)CC3)C2=O)COC1=O (single isomer, unassigned) [Example 2A, 9-(2-hydroxy-2-(2-methyl-6-(1H-tetrazol-1-yl)pyridin-3-yl)ethyl)-4-(4-methyl-5-oxo-2,5-dihydrofuran-3-yl)-1,4,9-triazaspiro[5.5]undecan-5-one]
- IC50 (ROMK): 36.5 nM
- IC50 (Kir1.1 (ROMK1)): 26 nM

Compound: Cc1c([C@@H](O)CN2CCC3(CC2)CN(C2=CC(=O)OC2)C(=O)O3)ccc2c1COC2=O [Example 16, (R)-8-(2-hydroxy-2-(4-methyl-1-oxo-1,3-dihydroisobenzofuran-5-yl)ethyl)-3-(5-oxo-2,5-dihydrofuran-3-yl)-1-oxa-3,8-diazaspiro[4.5]decan-2-one]
- IC50 (ROMK): 315 nM
- IC50 (Kir1.1 (ROMK1)): 320 nM

Compound: CC1=C(N2CCOC3(CCN(C[C@H](O)c4ccc5c(c4C)COC5=O)CC3)C2=O)COC1=O [Example 8A, (R)-9-(2-hydroxy-2-(4-methyl-1-oxo-1,3-dihydroisobenzofuran-5-yl)ethyl)-4-(4-methyl-5-oxo-2,5-dihydrofuran-3-yl)-1-oxa-4,9-diazaspiro[5.5]undecan-5-one]
- IC50 (ROMK): 13.3 nM
- IC50 (Kir1.1 (ROMK1)): 6.4 nM

From US9850245B2 (Merck Sharp & Dohme Corp., priority 2014, dated 2017)
